Source: ChEMBL document CHEMBL1141996, “cis-6-oxo-hexahydro-2-oxa-1,4-diazapentalene and cis-6-oxo-hexahydropyrrolo[3,2-c]pyrazole based scaffolds: design rationale, synthesis and cysteinyl proteinase inhibition” (Bioorg Med Chem Lett, 2005)

Target: T1, Cathepsin K (Homo sapiens, UniProt P43235)
T1 sequence (P43235 whole entry): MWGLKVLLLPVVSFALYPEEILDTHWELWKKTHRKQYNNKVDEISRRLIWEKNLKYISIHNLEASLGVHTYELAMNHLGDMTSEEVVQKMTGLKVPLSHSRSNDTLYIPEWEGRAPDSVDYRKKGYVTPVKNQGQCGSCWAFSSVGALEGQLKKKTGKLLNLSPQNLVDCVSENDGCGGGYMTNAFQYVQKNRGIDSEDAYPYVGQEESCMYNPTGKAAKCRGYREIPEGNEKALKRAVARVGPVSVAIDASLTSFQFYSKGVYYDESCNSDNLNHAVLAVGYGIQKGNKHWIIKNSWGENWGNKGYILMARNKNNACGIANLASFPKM
Assay: Binding affinity against human cathepsin K

| SMILES | Ki [nM] |
| --- | --- |
| CC(C)C[C@H](NC(=O)c1ccc(C(C)(C)C)cc1)C(=O)N1NC[C@@H]2[C@H]1C(=O)CN2C(=O)c1ccccc1 | 3.5 |
| CC(C)C[C@H](NC(=O)c1ccc(N(C)C)cc1)C(=O)N1CC[C@@H]2[C@H]1C(=O)CN2C(=O)c1ccccc1 | 5.5 |
| CC(C)C[C@H](NC(=O)c1ccc(C(C)(C)C)cc1)C(=O)N1CC[C@@H]2[C@H]1C(=O)CN2C(=O)c1ccccc1 | 10.1 |
| CC(C)C[C@H](NC(=O)c1ccc(N(C)C)cc1)C(=O)N1OC[C@@H]2[C@H]1C(=O)CN2C(=O)c1ccccc1 | 40.1 |

Target: not listed separately
Assay: Binding affinity against cathepsin B

| SMILES | Ki [nM] |
| --- | --- |
| CC(C)C[C@H](NC(=O)c1ccc(C(C)(C)C)cc1)C(=O)N1NC[C@@H]2[C@H]1C(=O)CN2C(=O)c1ccccc1 | 119 |
| CC(C)C[C@H](NC(=O)c1ccc(N(C)C)cc1)C(=O)N1CC[C@@H]2[C@H]1C(=O)CN2C(=O)c1ccccc1 | > 10000 |
| CC(C)C[C@H](NC(=O)c1ccc(C(C)(C)C)cc1)C(=O)N1CC[C@@H]2[C@H]1C(=O)CN2C(=O)c1ccccc1 | > 10000 |
| CC(C)C[C@H](NC(=O)c1ccc(N(C)C)cc1)C(=O)N1OC[C@@H]2[C@H]1C(=O)CN2C(=O)c1ccccc1 | > 6000 |

Target: Cruzipain (Trypanosoma cruzi, UniProt P25779)
Assay: Binding affinity against cruzaine

Chain of Cruzipain (P25779 whole entry): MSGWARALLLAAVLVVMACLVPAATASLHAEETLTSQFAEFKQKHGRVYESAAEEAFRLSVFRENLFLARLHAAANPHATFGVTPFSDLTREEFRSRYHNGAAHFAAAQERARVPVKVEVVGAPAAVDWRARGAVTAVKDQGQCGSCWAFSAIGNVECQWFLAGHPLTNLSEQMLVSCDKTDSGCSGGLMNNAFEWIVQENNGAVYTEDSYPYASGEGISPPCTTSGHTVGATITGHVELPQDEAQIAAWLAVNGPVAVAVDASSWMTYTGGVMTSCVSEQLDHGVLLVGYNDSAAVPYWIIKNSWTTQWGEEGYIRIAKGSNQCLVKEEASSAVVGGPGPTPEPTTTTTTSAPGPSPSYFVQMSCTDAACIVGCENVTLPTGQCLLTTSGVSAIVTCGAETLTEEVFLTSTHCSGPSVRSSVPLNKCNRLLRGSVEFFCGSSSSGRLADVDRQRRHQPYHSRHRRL

| SMILES | Ki [nM] |
| --- | --- |
| CC(C)C[C@H](NC(=O)c1ccc(C(C)(C)C)cc1)C(=O)N1NC[C@@H]2[C@H]1C(=O)CN2C(=O)c1ccccc1 | 93.2 |
| CC(C)C[C@H](NC(=O)c1ccc(N(C)C)cc1)C(=O)N1CC[C@@H]2[C@H]1C(=O)CN2C(=O)c1ccccc1 | 600 |
| CC(C)C[C@H](NC(=O)c1ccc(C(C)(C)C)cc1)C(=O)N1CC[C@@H]2[C@H]1C(=O)CN2C(=O)c1ccccc1 | 173 |
| CC(C)C[C@H](NC(=O)c1ccc(N(C)C)cc1)C(=O)N1OC[C@@H]2[C@H]1C(=O)CN2C(=O)c1ccccc1 | 2500 |

Target: Cysteine proteinase B (Leishmania mexicana, UniProt P36400)
Assay: Binding affinity against Leishmania mexicana cysteine peptidase B (CPB)

Chain of Cysteine proteinase B (P36400 whole entry): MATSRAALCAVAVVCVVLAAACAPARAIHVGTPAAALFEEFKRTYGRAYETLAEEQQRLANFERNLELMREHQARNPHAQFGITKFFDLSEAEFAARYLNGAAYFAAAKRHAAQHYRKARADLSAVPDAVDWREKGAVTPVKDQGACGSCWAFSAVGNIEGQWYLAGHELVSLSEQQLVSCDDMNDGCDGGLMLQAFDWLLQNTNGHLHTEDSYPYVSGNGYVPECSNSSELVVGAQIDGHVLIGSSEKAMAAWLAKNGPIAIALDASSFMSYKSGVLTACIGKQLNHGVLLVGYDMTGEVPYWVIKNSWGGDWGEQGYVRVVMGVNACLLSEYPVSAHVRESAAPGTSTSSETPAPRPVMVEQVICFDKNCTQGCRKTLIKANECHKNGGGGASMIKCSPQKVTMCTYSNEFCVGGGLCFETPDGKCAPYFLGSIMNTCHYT

| SMILES | Ki [nM] |
| --- | --- |
| CC(C)C[C@H](NC(=O)c1ccc(C(C)(C)C)cc1)C(=O)N1NC[C@@H]2[C@H]1C(=O)CN2C(=O)c1ccccc1 | 49.5 |
| CC(C)C[C@H](NC(=O)c1ccc(N(C)C)cc1)C(=O)N1CC[C@@H]2[C@H]1C(=O)CN2C(=O)c1ccccc1 | 1170 |
| CC(C)C[C@H](NC(=O)c1ccc(C(C)(C)C)cc1)C(=O)N1CC[C@@H]2[C@H]1C(=O)CN2C(=O)c1ccccc1 | 691 |
| CC(C)C[C@H](NC(=O)c1ccc(N(C)C)cc1)C(=O)N1OC[C@@H]2[C@H]1C(=O)CN2C(=O)c1ccccc1 | 1000 |

Target: Cathepsin S (Homo sapiens, UniProt P25774)
Assay: Binding affinity against cathepsin S

Chain of Cathepsin S (P25774 whole entry): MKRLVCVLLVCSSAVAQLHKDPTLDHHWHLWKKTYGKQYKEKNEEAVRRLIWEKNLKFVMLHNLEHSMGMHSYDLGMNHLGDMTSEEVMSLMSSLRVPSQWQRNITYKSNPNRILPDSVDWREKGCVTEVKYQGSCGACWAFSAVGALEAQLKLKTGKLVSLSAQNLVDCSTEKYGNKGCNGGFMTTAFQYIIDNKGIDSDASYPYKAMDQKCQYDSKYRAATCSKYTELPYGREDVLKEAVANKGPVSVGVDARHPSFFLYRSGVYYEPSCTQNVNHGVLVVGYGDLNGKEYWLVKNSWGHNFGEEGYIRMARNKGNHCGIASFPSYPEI

| SMILES | Ki [nM] |
| --- | --- |
| CC(C)C[C@H](NC(=O)c1ccc(C(C)(C)C)cc1)C(=O)N1NC[C@@H]2[C@H]1C(=O)CN2C(=O)c1ccccc1 | 434 |
| CC(C)C[C@H](NC(=O)c1ccc(N(C)C)cc1)C(=O)N1CC[C@@H]2[C@H]1C(=O)CN2C(=O)c1ccccc1 | > 3000 |
| CC(C)C[C@H](NC(=O)c1ccc(C(C)(C)C)cc1)C(=O)N1CC[C@@H]2[C@H]1C(=O)CN2C(=O)c1ccccc1 | > 4500 |
| CC(C)C[C@H](NC(=O)c1ccc(N(C)C)cc1)C(=O)N1OC[C@@H]2[C@H]1C(=O)CN2C(=O)c1ccccc1 | > 3000 |

Target: not listed separately
Assay: Binding affinity against cathepsin L

| SMILES | Ki [nM] |
| --- | --- |
| CC(C)C[C@H](NC(=O)c1ccc(C(C)(C)C)cc1)C(=O)N1NC[C@@H]2[C@H]1C(=O)CN2C(=O)c1ccccc1 | 370 |
| CC(C)C[C@H](NC(=O)c1ccc(N(C)C)cc1)C(=O)N1CC[C@@H]2[C@H]1C(=O)CN2C(=O)c1ccccc1 | 1800 |
| CC(C)C[C@H](NC(=O)c1ccc(C(C)(C)C)cc1)C(=O)N1CC[C@@H]2[C@H]1C(=O)CN2C(=O)c1ccccc1 | > 3500 |
| CC(C)C[C@H](NC(=O)c1ccc(N(C)C)cc1)C(=O)N1OC[C@@H]2[C@H]1C(=O)CN2C(=O)c1ccccc1 | > 4300 |
